For experiment [1], the target named is T1, BRAF V600E (Homo sapiens, UniProt P15056+Q96SW2, V600E).
T1 construct: knock-in of the HiBiT tag to the endogenous BRAF V600E locus; host or cells: A375.10 (A375 clonal line, CRISPR HiBiT knock-in at the endogenous BRAF V600E locus)
As to the kind of experiment: BRAF V600E HiBiT Degradation Assay. Type of experiment: cell-based. The following applies: A375.10 cells, BRAF V600E. A digest of the protocol:
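Endogenous HiBiT knock-in on BRAF V600E in A375 cells (clone A375.10); 11-point half-log series, top 10 μM, 2, 6 or 24 h at 37° C. Lytic HiBiT luminescence, background-subtracted, normalized to DMSO; 4-parameter fit gives DC50, Emax (residual protein) and IP (inflection point).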

In experiment [2] the test system is A375-NRAS^Q61K cells. Nature of the experiment: CTGlo Cell Viability Assay, A375-NRAS^Q61K (A375.11) cells, 96 hours. The following applies: A375.11 (A375-NRAS^Q61K) cells; for CTGlo A375.11 96 hours Emax / Emax: lowest % viability achieved. Format: cell-based, human. Put shortly:
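Viability as CellTiter-Glo ATP luminescence after 96 h compound exposure at 37 °C; A375.11 (BRAF V600E/NRAS Q61K) cells at 250/well, top final concentration 10 μM in half-log steps. Signal was background-corrected and set relative to DMSO controls. A 4-parameter logistic fit gave GI50 (50% crossing) and Emax.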

[3] abbreviates: 2 hours, inflection point, read-out: HiBiT-Degradation A375.10 BRAF 2 hours IP.
Where [4] appears, read: 2 hours, read-out: HiBiT-Degradation A375.10 BRAF 2 hours DC50.
Where [5] appears, read: 2 hours, residual protein remaining.
Where [6] appears, read: 2 hours, residual protein remaining, read-out: HiBiT-Degradation A375.10 BRAF 2 hours Emax.
The mark [7] stands for this setting: HiBiT, 24 hours, read-out: HiBiT-Degradation A375.10 BRAF 24 hours DC50.
Where [8] appears, read: HiBiT, 24 hours, read-out: HiBiT-Degradation A375.10 BRAF 24 hours Emax.
[9] abbreviates: HiBiT, 24 hours, read-out: HiBiT-Degradation A375.10 BRAF 24 hours IP.

Like-named read-outs stand apart in the source and are kept apart here.

T1 sequence (P15056 whole entry V600E): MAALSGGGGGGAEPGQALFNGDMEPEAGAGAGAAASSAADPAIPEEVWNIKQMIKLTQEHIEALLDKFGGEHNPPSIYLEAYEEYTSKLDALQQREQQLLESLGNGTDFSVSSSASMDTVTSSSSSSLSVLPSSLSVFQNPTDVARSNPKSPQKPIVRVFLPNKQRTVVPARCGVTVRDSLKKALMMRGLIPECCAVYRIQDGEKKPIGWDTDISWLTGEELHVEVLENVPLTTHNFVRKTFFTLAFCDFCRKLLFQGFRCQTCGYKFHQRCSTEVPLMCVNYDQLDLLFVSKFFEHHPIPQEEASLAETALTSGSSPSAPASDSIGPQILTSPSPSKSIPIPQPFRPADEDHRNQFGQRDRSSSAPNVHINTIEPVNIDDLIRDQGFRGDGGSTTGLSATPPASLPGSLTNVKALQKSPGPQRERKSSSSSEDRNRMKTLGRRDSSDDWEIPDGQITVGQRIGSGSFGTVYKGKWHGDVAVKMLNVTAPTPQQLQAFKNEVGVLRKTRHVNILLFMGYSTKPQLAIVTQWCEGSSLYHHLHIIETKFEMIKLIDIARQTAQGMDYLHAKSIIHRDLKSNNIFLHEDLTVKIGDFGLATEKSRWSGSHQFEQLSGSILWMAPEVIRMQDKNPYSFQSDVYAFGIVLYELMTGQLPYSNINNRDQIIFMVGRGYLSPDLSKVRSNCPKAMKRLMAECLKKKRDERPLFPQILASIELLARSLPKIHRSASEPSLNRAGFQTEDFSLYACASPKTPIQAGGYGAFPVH
T1 sequence (Q96SW2 whole entry): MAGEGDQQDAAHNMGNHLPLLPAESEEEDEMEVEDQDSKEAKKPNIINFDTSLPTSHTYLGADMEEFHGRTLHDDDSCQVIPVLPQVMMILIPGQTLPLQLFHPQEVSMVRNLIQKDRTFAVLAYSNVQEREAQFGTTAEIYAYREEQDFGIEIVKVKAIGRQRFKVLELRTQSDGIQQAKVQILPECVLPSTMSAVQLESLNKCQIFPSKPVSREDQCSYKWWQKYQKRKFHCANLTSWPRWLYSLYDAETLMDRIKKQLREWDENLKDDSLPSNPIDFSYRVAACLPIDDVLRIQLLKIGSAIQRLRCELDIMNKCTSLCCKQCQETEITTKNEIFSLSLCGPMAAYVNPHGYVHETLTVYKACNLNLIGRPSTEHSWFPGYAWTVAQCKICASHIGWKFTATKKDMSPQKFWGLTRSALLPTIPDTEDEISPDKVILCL
T1 sequence (Q16531 whole entry partner): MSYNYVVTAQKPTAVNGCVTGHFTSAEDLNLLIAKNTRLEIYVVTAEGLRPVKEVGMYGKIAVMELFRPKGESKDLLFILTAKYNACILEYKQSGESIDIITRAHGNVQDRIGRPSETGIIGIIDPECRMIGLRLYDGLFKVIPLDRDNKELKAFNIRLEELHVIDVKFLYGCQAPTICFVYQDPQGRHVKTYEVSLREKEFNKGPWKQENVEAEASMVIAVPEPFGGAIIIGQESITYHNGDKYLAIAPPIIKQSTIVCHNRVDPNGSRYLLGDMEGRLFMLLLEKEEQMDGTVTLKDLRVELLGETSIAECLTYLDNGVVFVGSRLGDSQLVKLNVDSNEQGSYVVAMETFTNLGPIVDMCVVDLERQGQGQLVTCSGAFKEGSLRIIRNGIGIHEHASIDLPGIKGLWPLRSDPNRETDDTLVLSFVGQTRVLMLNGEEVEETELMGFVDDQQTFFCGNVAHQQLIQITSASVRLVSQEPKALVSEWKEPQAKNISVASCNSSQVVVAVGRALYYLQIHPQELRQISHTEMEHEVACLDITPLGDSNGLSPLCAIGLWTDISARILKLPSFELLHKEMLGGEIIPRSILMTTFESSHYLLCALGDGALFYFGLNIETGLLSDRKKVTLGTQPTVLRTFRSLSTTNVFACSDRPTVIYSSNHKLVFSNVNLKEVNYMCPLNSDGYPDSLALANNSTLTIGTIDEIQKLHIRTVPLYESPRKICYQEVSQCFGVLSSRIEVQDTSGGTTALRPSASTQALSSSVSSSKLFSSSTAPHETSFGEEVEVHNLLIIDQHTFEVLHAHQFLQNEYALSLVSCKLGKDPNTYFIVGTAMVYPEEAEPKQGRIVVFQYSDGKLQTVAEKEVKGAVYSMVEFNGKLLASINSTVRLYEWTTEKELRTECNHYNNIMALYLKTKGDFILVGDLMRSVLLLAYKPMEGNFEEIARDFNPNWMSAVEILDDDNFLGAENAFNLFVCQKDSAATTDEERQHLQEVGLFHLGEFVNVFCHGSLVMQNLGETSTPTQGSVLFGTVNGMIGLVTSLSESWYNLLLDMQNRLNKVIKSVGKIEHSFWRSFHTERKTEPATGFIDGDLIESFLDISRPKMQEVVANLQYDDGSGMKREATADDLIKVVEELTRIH

The GI50 is the concentration at which growth is held to half of that of the control. In the case of `CCN(C)S(=O)(=O)Nc1ccc(F)c(Oc2ccc3ncc(OC4CC5(C4)CN(C4CCC(c6cc7c(cc6F)c(N6CCC(=O)NC6=O)nn7C)CC4)C5)nc3c2)c1C#N` (single isomer, unassigned) [Compound 282, 7-[2-cyano-3-[[ethyl(methyl)sulfamoyl]amino]-6-fluoro-phenoxy]-2-[[2-[4-[3-(2,4-dioxohexahydropyrimidin-1-yl)-5-fluoro-1-methyl-indazol-6-yl]cyclohexyl]-2-azaspiro[3.3]heptan-6-yl]oxy]quinoxaline], the DC50 in experiment [1] (setting [3]) and in experiment [1] (setting [4]) was less than 1000 nM throughout. In experiment [1] (setting [5]), the “HiBiT-Degradation A375.10 BRAF 2 hours Emax” value was “** (<90% and >50%)”. The same compound had a GI50 in experiment [2] of less than 1000 nM. In experiment [2], the “CTGlo A375.11 96 hours Emax” value is “*** (<=50%)”.
On to `CO[C@@H]1CCN(S(=O)(=O)Nc2ccc(F)c(Oc3ccc4ncc(C5CC6(CCN(C7CCC(c8cc9c(cc8F)c(N8CCC(=O)NC8=O)nn9C)CC7)CC6)C5)nc4c3)c2C#N)C1` (single isomer, unassigned) [Compound 284], for which the DC50 in experiment [1] (setting [3]) and in experiment [1] (setting [4]) was less than 1000 nM in each case. Also, the Emax in experiment [1] (setting [6]) is less than 50%; in experiment [2] (Homo sapiens, 96 h) it was less than 50%. In addition, in experiment [2] (Homo sapiens, 96 h), the GI50 was less than 1000 nM.
As to `CO[C@@H]1CCN(S(=O)(=O)Nc2ccc(F)c(Oc3ccc4ncc(C5CC6(CCN(C7CCC(c8cc9c(cc8F)c(N8CCC(=O)NC8=O)nn9C)CC7)CC6)C5)nc4c3)c2C#N)C1` (single isomer, unassigned) [Compound 285], the DC50 in experiment [1] (setting [4]) is less than 1000 nM. In experiment [2], this compound gave a GI50 of less than 1000 nM.
Take `CCN(C)S(=O)(=O)Nc1ccc(F)c(Oc2ccc3ncn([C@@H]4CO[C@@]5(CCN(C6CCC(c7cc8c(cc7F)c(N7CCC(=O)NC7=O)nn8C)CC6)C5)C4)c(=O)c3c2)c1C#N` (single isomer, unassigned) [Compound 286]: the DC50 in experiment [1] (setting [3]) and in experiment [1] (setting [4]) was less than 1000 nM throughout. Moreover, the Emax in experiment [1] (setting [6]) is less than 50%; in experiment [2] (Homo sapiens, 96 h) it was less than 50%. In experiment [1] (HiBiT, 24 hours), the “HiBiT-Degradation A375.10 BRAF 24 hours Emax” value was “*** (<=50%)”. Moreover, in experiment [2] (Homo sapiens, 96 h), the GI50 is less than 1000 nM.
Turning to `CCN(C)S(=O)(=O)Nc1ccc(F)c(Oc2ccc3ncn([C@@H]4CO[C@@]5(CCN(C6CCC(c7cc8c(cc7F)c(N7CCC(=O)NC7=O)nn8C)CC6)C5)C4)c(=O)c3c2)c1C#N` (single isomer, unassigned) [Compound 287], in experiment [1] (setting [5]), the “HiBiT-Degradation A375.10 BRAF 2 hours Emax” value is listed as “*** (<=50%)”. Besides, the DC50 in experiment [1] (setting [7]) is less than 1000 nM. Besides, the Emax in experiment [1] (setting [8]) was less than 50%. In addition, the DC50 in experiment [1] (setting [9]) was less than 1000 nM. Besides, in experiment [2], the GI50 was less than 1000 nM and the “CTGlo A375.11 96 hours Emax” value is “*** (<=50%)”.
As for `CCN(C)S(=O)(=O)Nc1ccc(F)c(Oc2ccc3ncn([C@H]4CO[C@]5(CCN(C6CCC(c7cc8c(cc7F)c(N7CCC(=O)NC7=O)nn8C)CC6)C5)C4)c(=O)c3c2)c1C#N` (single isomer, unassigned) [Compound 288], the DC50 in experiment [1] (setting [3]) was less than 1000 nM; in experiment [1] (setting [4]) it was 1000 to 10000 nM. The Emax in experiment [1] (setting [6]) fell in the range of 50 to 90%; in experiment [2] (Homo sapiens, 96 h), 50 to 90%. The compound further came in with a concentration for 50% growth inhibition (GI50) in experiment [2] of more than 10000 nM.
For the compound `CCN(C)S(=O)(=O)Nc1ccc(F)c(Oc2ccc3ncn([C@H]4CO[C@]5(CCN(C6CCC(c7cc8c(cc7F)c(N7CCC(=O)NC7=O)nn8C)CC6)C5)C4)c(=O)c3c2)c1C#N` (single isomer, unassigned) [Compound 289], the DC50 in experiment [1] (setting [3]), in experiment [1] (setting [4]), in experiment [1] (setting [7]) and in experiment [1] (setting [9]) was less than 1000 nM in each case. In experiment [1] (setting [5]), the “HiBiT-Degradation A375.10 BRAF 2 hours Emax” value was “*** (<=50%)”. For the same compound, the Emax in experiment [1] (setting [8]) was less than 50%. In experiment [2], this compound returned a GI50 of less than 1000 nM. The “CTGlo A375.11 96 hours Emax” value in experiment [2] is recorded as “*** (<=50%)”.
On to `CCN(C)S(=O)(=O)Nc1ccc(F)c(Oc2ccc3ncn([C@@H]4CO[C@]5(CCN(C6CCC(c7cc8c(cc7F)c(N7CCC(=O)NC7=O)nn8C)CC6)C5)C4)c(=O)c3c2)c1C#N` (single isomer, unassigned) [Compound 290], for which the values for the DC50 in experiment [1] (setting [3]) and in experiment [1] (setting [4]) were less than 1000 nM and 1000 to 10000 nM, respectively. Also, the Emax in experiment [1] (setting [6]) was 50 to 90%. In experiment [2], this compound displayed a GI50 of more than 10000 nM. The “CTGlo A375.11 96 hours Emax” value in experiment [2] is “** (<90% and >50%)”.

Source of the values: patent US20260297060A1, “COMPOUNDS FOR THE DEGRADATION OF MUTANT BRAF” (C4 THERAPEUTICS, INC., priority 2023, published 2026).
